Experimental data reported in publication PMC7182600 (Influenza and Other Respiratory Viruses, 2020).

Biological target: NA of rPhuket3073/Yamagata (wild‐type) (Influenza B virus, UniProt A0A1S5RAG6)
Assay type: biochemical
Conditions: read-out: IC50 values of NA inhibitors

NA of rPhuket3073/Yamagata (wild‐type), sequence (A0A1S5RAG6 entry or part of it, added parts left off): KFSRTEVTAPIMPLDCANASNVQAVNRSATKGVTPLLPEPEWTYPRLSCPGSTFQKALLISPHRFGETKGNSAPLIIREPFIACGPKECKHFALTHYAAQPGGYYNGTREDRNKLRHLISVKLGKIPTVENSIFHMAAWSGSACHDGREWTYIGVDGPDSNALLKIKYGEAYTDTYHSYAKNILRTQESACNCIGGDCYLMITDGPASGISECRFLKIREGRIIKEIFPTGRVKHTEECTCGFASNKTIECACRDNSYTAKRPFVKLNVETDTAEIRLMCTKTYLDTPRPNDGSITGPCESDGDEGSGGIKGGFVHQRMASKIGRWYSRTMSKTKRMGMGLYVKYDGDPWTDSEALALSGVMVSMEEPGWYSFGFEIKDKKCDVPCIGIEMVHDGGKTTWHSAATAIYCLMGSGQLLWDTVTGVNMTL

## Peramivir
  IC50: 0.5 nM
